What was measured:
dogs with hypertension = assay: Prospective, block-randomized, double-blind clinical trial: systolic blood pressure (SBP) in client-owned dogs with proteinuric CKD; assay type: in vivo, dog; details: for Average of SBP day 0: baseline; for Average of SBP day 0 / Average of SBP % change day 30 / Average of SBP change day 30 / Average of SBP % change day 60 / Average of SBP change day 60 / Average of SBP % change day 90 / Average of SBP change day 90 / Average of SBP day 30 / Average of SBP day 60 / Average of SBP day 90: dogs hypertensive at day 0, no amlodipine; for Average of SBP % change day 30 / Average of SBP change day 30 / Average of SBP % change day 60 / Average of SBP change day 60 / Average of SBP % change day 90 / Average of SBP change day 90 / Average of SBP % change day 120 / Average of SBP change day 120: change from baseline; for Average of SBP % change day 120 / Average of SBP change day 120: the other drug (telmisartan or enalapril) added after SBP measurement on day 90; for course of average SBP during the period of treatment: up to day 90
From the text: A prospective, block-randomized, double-blind clinical trial has been carried out. Fifty-four client-owned dogs with persistent pathologic renal proteinuria have been recruited over a 2-year period.
Azotemic and non-azotemic dogs (N=54) with hypertensive and non-hypertensive CKD have been recruited prospectively from patients presented to the hospital. Dogs included as cases will have confirmed persistent pathologic renal proteinuria due to CKD; in order to be classified as such, fulfillment of the criteria described below will be required.
Abdominal ultrasound findings consistent with CKD (bilaterally small, irregular kidneys) and absence of renal neoplasia have also been documented.
Dogs with suspected or confirmed hyper-adrenocorticism and diabetes mellitus have been included if their disease is considered well controlled with medical therapy.
Once included in the study and based on the presence/degree of azotemia, dogs have been grouped according to the International Renal Interest Society (IRIS) classification scheme for CKD. Those classified as IRIS stages 2-4 (serum creatinine ≥1.4 mg/dL with inappropriately dilute urine [USG<1.030]) have been considered azotemic (AZ), and those classified as IRIS stage 1 (creatinine <1.4 mg/dL) have been considered non-azotemic (non-AZ). Within each of these two groups, dogs will then be stratified according to IRIS recommendations for arterial pressure (AP) substaging. According to this scheme, dogs with persistent average indirect arterial systolic BP<150 mm Hg will be classified as AP0 (minimal risk for target organ damage). Those with persistent average indirect arterial systolic BP≥150 mm Hg have been classified as AP1-3 (at risk for target organ damage). Four groups will thus be identified: • 1. AZ (IRIS Stages 2-4), IRIS substage AP1-3 3. non-AZ (IRIS Stage 1), IRIS substage AP1-3 • 2. AZ (IRIS Stages 2-4), IRIS substage AP0 4. non-AZ (IRIS Stage 1), IRIS substage AP0
Once placed into one of these four groups, each patient has then been assigned, based on a randomized blocking scheme, to receive either enalapril (n=27) or telmisartan (n=27), as described below, with the aim of grouping being to ensure that equal numbers of each are included into the two treatment groups.
On inclusion (day 0), all owners have been required to read/sign a form consenting to their pets' participation in the study. The following baseline data have been collected for each case: full physical examination (performed by one of the study investigators), fundic examination, blood pressure measurement, serum chemistry panel, urinalysis, abdominal ultrasound, UPC and urine culture. The results of screening tests, if performed within 2 weeks of inclusion in the study, may be used as baseline information. Baseline UPC has been defined as the average of two measurements, taken 2 weeks apart, prior to enrollment.
On day 0, each dog has been randomized to receive telmisartan at 1 mg/kg PO q 24 h (TEL group, n=27) or enalapril at 0.5 mg/kg PO q 12 h (ENAL group, n=27) in a double-blind manner. Randomization and dispensation of telmisartan or enalapril has been carried out at the appropriate doses. Owners have been provided with appropriate contact numbers in the event of an emergency. Enalapril is readily available and telmisartan has been provided by Boehringer Ingelheim Vetmedica Inc., St. Joseph, MO in form of the an aqueous solution, which is commercially available as Semintra®.
For dogs that are classified as AP3 (SBP≥180 mmHg; ≥200 mmHg in sighthounds), a calcium channel blocker (CCB; amlodipine, 0.1 mg/kg PO q 24 hours) has been administered contemporaneously. Co-administration of RAAS-inhibitors and CCB is common in human patients, recommended by a panel of veterinary experts and shown to be efficacious in a laboratory model of proteinuria. All dogs have been started or maintained on a commercially available diet formulated to be low in phosphorus and protein, for at least 1 month prior to enrollment. […]

dogs = details: cited from earlier work

SMILES | Average of SBP day 0 (dogs with hypertension) [mmHg] | Average of SBP % change day 30 (dogs with hypertension; day 30) | Average of SBP change day 30 (dogs with hypertension; day 30) | Average of SBP % change day 60 (dogs with hypertension) | Average of SBP change day 60 (dogs with hypertension) | Average of SBP % change day 90 (dogs with hypertension) | Average of SBP change day 90 (dogs with hypertension) | Average of SBP % change day 120 (dogs with hypertension; no amlodipine) | Average of SBP change day 120 (dogs with hypertension; no amlodipine) | Average of SBP day 30 (dogs with hypertension; day 30) [mmHg] | Average of SBP day 60 (dogs with hypertension) [mmHg] | Average of SBP day 90 (dogs with hypertension) [mmHg] | course of average SBP during the period of treatment (dogs with hypertension; no amlodipine) | also measured
CCOC(=O)[C@H](CCc1ccccc1)N[C@@H](C)C(=O)N1CCC[C@H]1C(=O)O [Enalapril] | 163.17 | +12.90% | +20.00 mmHg | +0.65% | +1.00 mmHg | +1.94% | +3.00 mmHg | −20.65^1% | −32.00^1 mmHg | 153.80 | 153.00 | 158.00 | increased again on days 60 and 90 | Average of SBP day 0 (dogs with hypertension; listed as enalapril): 163 mmHg; SBP increased (dogs with hypertension; day 30, FIG. 2): more than 10%; Average of SBP day 30 (dogs with hypertension; day 30, listed as enalapril): 153 mmHg
CCCc1nc2c(C)cc(-c3nc4ccccc4n3C)cc2n1Cc1ccc(-c2ccccc2C(=O)O)cc1 [Telmisartan] | 163.57 | −18.88% | −31.50 mmHg | −18.42% | −31.00 mmHg | −22.58% | −37.00 mmHg | −42.70^2% | −76.00^2 mmHg | 140.86 | 138.60 | 132.33 | constantly lowered | effect on blood pressure (dogs; 1 mg/kg daily dose): have an effect on blood pressure; vascular and renal excretory effects (dogs; daily oral dose): produces vasodilation, diuresis and natriuresis without influencing potassium or creatinine excretion; Average of SBP day 0 (dogs with hypertension; listed as telmisartan): 163 mmHg; absolute average SBP compared to enalapril treated dogs (dogs with hypertension; day 0 to day 90, no amlodipine, FIG. 4): much lower; average change of SBP, reduction compared to enalapril-treated dogs (dogs with hypertension; day 30): at least 30 mmHg; reduction in SBP (dogs with hypertension; day 30, FIG. 2): ~20%; average SBP change from baseline compared to enalapril (dogs with hypertension; day 30, day 60 and day 90, dogs with SBP of at least 150 mmHg at day 0 which received amlodipine, FIG. 3): greater; average change (reduction) in SBP compared to enalapril treated dogs (dogs with hypertension; day 30 to day 90, no amlodipine, FIGS. 1 and 2): greater; Average of SBP day 90 (dogs with hypertension; listed as telmisartan): 132 mmHg

— patent US12605366B2, “Telmisartan for the treatment of hypertension in dogs” (BOEHRINGER INGELHEIM VETMEDICA GMBH, priority 2019, dated 2026)
